Earlier results in US9849145B2, “Pharmaceutical composition containing honeysuckle extract and antibiotics, pharmaceutical kit, and use of honeysuckle extract for preparation of drug” (priority 2011, dated 2017).

What was measured:
Parameters in all cases: key: Resistant; Sensitive; Intermediate degree (moderate resistance)
Staphylococcus aureus = details: clinical isolate, specimen Y31692, secretion; cited from earlier work
Escherichia coli = details: clinical isolate, specimen 32042, urine; cited from earlier work
Klebsiella pneumoniae [1] = details: clinical isolate, specimen 31494, sputum; cited from earlier work
Pseudomona aeruginosa = details: clinical isolate, specimen 12; cited from earlier work
Klebsiella pneumoniae [2] = details: clinical isolate, specimen 31853, urine; cited from earlier work

Compound: NCC[C@H](O)C(=O)N[C@@H]1C[C@H](N)[C@@H](O[C@H]2O[C@H](CN)[C@@H](O)[C@H](O)[C@H]2O)[C@H](O)[C@H]1O[C@H]1O[C@H](CO)[C@@H](O)[C@H](N)[C@H]1O [AMK, amikacin]
- resistance of Staphylococcus aureus to the antibiotic (Staphylococcus aureus): S
- resistance of Escherichia coli to the antibiotic (Escherichia coli): S
- drug resistant spectrum of the experimental strain of Klebsiella pneumoniae (Klebsiella pneumoniae [1]): S
- resistance of Pseudomona aeruginosa to the antibiotic (Pseudomona aeruginosa): S
- resistance of Klebsiella pneumoniae to the antibiotic (Klebsiella pneumoniae [2]): S

Compound: C[C@H]1[C@H](NC(=O)/C(=N\OC(C)(C)C(=O)O)c2csc(N)n2)C(=O)N1S(=O)(=O)O [ATM, aztreonam]
- resistance of Pseudomona aeruginosa to the antibiotic (Pseudomona aeruginosa): S

Compound: CC(C)(O/N=C(\C(=O)N[C@@H]1C(=O)N2C(C(=O)[O-])=C(C[n+]3ccccc3)CS[C@H]12)c1csc(N)n1)C(=O)O [CAZ, ceftazidime]
- resistance of Escherichia coli to the antibiotic (Escherichia coli): R
- drug resistant spectrum of the experimental strain of Klebsiella pneumoniae (Klebsiella pneumoniae [1]): S
- resistance of Pseudomona aeruginosa to the antibiotic (Pseudomona aeruginosa): S
- resistance of Klebsiella pneumoniae to the antibiotic (Klebsiella pneumoniae [2]): S

Compound: CCN1CCN(C(=O)N[C@@H](C(=O)N[C@@H]2C(=O)N3C(C(=O)O)=C(CSc4nnnn4C)CS[C@H]23)c2ccc(O)cc2)C(=O)C1=O [CFP, cefoperazone]
- resistance of Pseudomona aeruginosa to the antibiotic (Pseudomona aeruginosa): S

Compound: O=C(N[C@H](CO)[C@H](O)c1ccc([N+](=O)[O-])cc1)C(Cl)Cl [CHL, chloramphenicol]
- resistance of Escherichia coli to the antibiotic (Escherichia coli): S
- drug resistant spectrum of the experimental strain of Klebsiella pneumoniae (Klebsiella pneumoniae [1]): R
- resistance of Klebsiella pneumoniae to the antibiotic (Klebsiella pneumoniae [2]): I

Compound: CO/N=C(\C(=O)N[C@@H]1C(=O)N2C(C(=O)O)=C(CSc3nc(=O)c(=O)[nH]n3C)CS[C@H]12)c1csc(N)n1 [CRO, ceftriaxone]
- resistance of Escherichia coli to the antibiotic (Escherichia coli): R
- drug resistant spectrum of the experimental strain of Klebsiella pneumoniae (Klebsiella pneumoniae [1]): R
- resistance of Pseudomona aeruginosa to the antibiotic (Pseudomona aeruginosa): R
- resistance of Klebsiella pneumoniae to the antibiotic (Klebsiella pneumoniae [2]): S

Compound: CO/N=C(\C(=O)N[C@@H]1C(=O)N2C(C(=O)O)=C(COC(C)=O)CS[C@H]12)c1csc(N)n1 [CTX, cefotaxime]
- resistance of Escherichia coli to the antibiotic (Escherichia coli): R
- drug resistant spectrum of the experimental strain of Klebsiella pneumoniae (Klebsiella pneumoniae [1]): R
- resistance of Pseudomona aeruginosa to the antibiotic (Pseudomona aeruginosa): S
- resistance of Klebsiella pneumoniae to the antibiotic (Klebsiella pneumoniae [2]): S

Compound: CO/N=C(\C(=O)N[C@@H]1C(=O)N2C(C(=O)O)=C(COC(N)=O)CS[C@H]12)c1ccco1 [CXM, cefuroxime]
- resistance of Escherichia coli to the antibiotic (Escherichia coli): R
- drug resistant spectrum of the experimental strain of Klebsiella pneumoniae (Klebsiella pneumoniae [1]): R
- resistance of Pseudomona aeruginosa to the antibiotic (Pseudomona aeruginosa): R
- resistance of Klebsiella pneumoniae to the antibiotic (Klebsiella pneumoniae [2]): S

Compound: Cc1nnc(SCC2=C(C(=O)O)N3C(=O)[C@@H](NC(=O)Cn4cnnn4)[C@H]3SC2)s1 [CZO, cefazolin]
- resistance of Escherichia coli to the antibiotic (Escherichia coli): R
- drug resistant spectrum of the experimental strain of Klebsiella pneumoniae (Klebsiella pneumoniae [1]): R
- resistance of Klebsiella pneumoniae to the antibiotic (Klebsiella pneumoniae [2]): S

Compound: CC[C@H]1OC(=O)[C@H](C)[C@@H](O[C@H]2C[C@@](C)(OC)[C@@H](O)[C@H](C)O2)[C@H](C)[C@@H](O[C@@H]2O[C@H](C)C[C@H](N(C)C)[C@H]2O)[C@](C)(O)C[C@@H](C)C(=O)[C@H](C)[C@@H](O)[C@]1(C)O [ERY, erythromycin]
- resistance of Staphylococcus aureus to the antibiotic (Staphylococcus aureus): R

Compound: CO/N=C(\C(=O)N[C@@H]1C(=O)N2C(C(=O)[O-])=C(C[N+]3(C)CCCC3)CS[C@H]12)c1csc(N)n1 [FEP, cefepime]
- resistance of Escherichia coli to the antibiotic (Escherichia coli): R
- drug resistant spectrum of the experimental strain of Klebsiella pneumoniae (Klebsiella pneumoniae [1]): S
- resistance of Pseudomona aeruginosa to the antibiotic (Pseudomona aeruginosa): S
- resistance of Klebsiella pneumoniae to the antibiotic (Klebsiella pneumoniae [2]): S

Compound: CO[C@@]1(NC(=O)Cc2cccs2)C(=O)N2C(C(=O)O)=C(COC(N)=O)CS[C@@H]21 [FOX, cefoxitin]
- resistance of Staphylococcus aureus to the antibiotic (Staphylococcus aureus): S
- resistance of Escherichia coli to the antibiotic (Escherichia coli): R
- drug resistant spectrum of the experimental strain of Klebsiella pneumoniae (Klebsiella pneumoniae [1]): S
- resistance of Klebsiella pneumoniae to the antibiotic (Klebsiella pneumoniae [2]): S

Compound: C[C@H]1COc2c(N3CCN(C)CC3)c(F)cc3c(=O)c(C(=O)O)cn1c23 [LEV, left-handed oxygen fluorine]
- resistance of Pseudomona aeruginosa to the antibiotic (Pseudomona aeruginosa): S

Compound: CCn1cc(C(=O)O)c(=O)c2cc(F)c(N3CCNCC3)cc21 [NOR, norfloxacin]
- resistance of Pseudomona aeruginosa to the antibiotic (Pseudomona aeruginosa): S

Compound: Cc1onc(-c2ccccc2)c1C(=O)N[C@@H]1C(=O)N2[C@@H]1SC(C)(C)[C@@H]2C(=O)O [OXA, oxacillin]
- resistance of Staphylococcus aureus to the antibiotic (Staphylococcus aureus): S

Compound: CCN1CCN(C(=O)N[C@@H](C(=O)N[C@@H]2C(=O)N3[C@@H]2SC(C)(C)[C@@H]3C(=O)O)c2ccccc2)C(=O)C1=O [PIP, piperacillin]
- resistance of Escherichia coli to the antibiotic (Escherichia coli): R
- drug resistant spectrum of the experimental strain of Klebsiella pneumoniae (Klebsiella pneumoniae [1]): R
- resistance of Pseudomona aeruginosa to the antibiotic (Pseudomona aeruginosa): S
- resistance of Klebsiella pneumoniae to the antibiotic (Klebsiella pneumoniae [2]): I

Compound: CO[C@H]1/C=C/O[C@@]2(C)Oc3c(C)c(O)c4c(O)c(c(/C=N/N5CCN(C)CC5)c(O)c4c3C2=O)NC(=O)/C(C)=C\C=C\[C@H](C)[C@H](O)[C@@H](C)[C@@H](O)[C@@H](C)[C@H](OC(C)=O)[C@@H]1C [RIF, rifampin]
- resistance of Staphylococcus aureus to the antibiotic (Staphylococcus aureus): S

Compound: NC[C@H]1O[C@H](O[C@H]2[C@H](O)[C@@H](O[C@H]3O[C@H](CO)[C@@H](O)[C@H](N)[C@H]3O)[C@H](N)C[C@@H]2N)[C@H](N)C[C@@H]1O [TOB, tobramycin]
- resistance of Pseudomona aeruginosa to the antibiotic (Pseudomona aeruginosa): S

Compound: CN[C@H](CC(C)C)C(=O)N[C@H]1C(=O)N[C@@H](CC(N)=O)C(=O)N[C@H]2C(=O)N[C@H]3C(=O)N[C@H](C(=O)N[C@H](C(=O)O)c4cc(O)cc(O)c4-c4cc3ccc4O)[C@H](O)c3ccc(c(Cl)c3)Oc3cc2cc(c3O[C@@H]2O[C@H](CO)[C@@H](O)[C@H](O)[C@H]2O[C@H]2C[C@](C)(N)[C@H](O)[C@H](C)O2)Oc2ccc(cc2Cl)[C@H]1O [VAN, vancomycin]
- resistance of Staphylococcus aureus to the antibiotic (Staphylococcus aureus): S

Compound: amoxicillin/clavulanic acid [AMC]
- resistance of Escherichia coli to the antibiotic (Escherichia coli): I
- drug resistant spectrum of the experimental strain of Klebsiella pneumoniae (Klebsiella pneumoniae [1]): I
- resistance of Klebsiella pneumoniae to the antibiotic (Klebsiella pneumoniae [2]): S

Compound: ampicillin/sulbactam [SAM]
- resistance of Staphylococcus aureus to the antibiotic (Staphylococcus aureus): S
- resistance of Pseudomona aeruginosa to the antibiotic (Pseudomona aeruginosa): R

Compound: gentamicin
- resistance of Staphylococcus aureus to the antibiotic (Staphylococcus aureus): S
- resistance of Escherichia coli to the antibiotic (Escherichia coli): R
- drug resistant spectrum of the experimental strain of Klebsiella pneumoniae (Klebsiella pneumoniae [1]): R
- resistance of Pseudomona aeruginosa to the antibiotic (Pseudomona aeruginosa): S
- resistance of Klebsiella pneumoniae to the antibiotic (Klebsiella pneumoniae [2]): S

Compound: penicillin [PNE]
- resistance of Staphylococcus aureus to the antibiotic (Staphylococcus aureus): R

Compound: piperacillin/tazobactam [TZP]
- resistance of Escherichia coli to the antibiotic (Escherichia coli): I
- drug resistant spectrum of the experimental strain of Klebsiella pneumoniae (Klebsiella pneumoniae [1]): I
- resistance of Pseudomona aeruginosa to the antibiotic (Pseudomona aeruginosa): S
- resistance of Klebsiella pneumoniae to the antibiotic (Klebsiella pneumoniae [2]): S

Compound: sulperazon [CLS]
- resistance of Pseudomona aeruginosa to the antibiotic (Pseudomona aeruginosa): S

Compound: ticarcillin/clavulanic acid [TIM]
- resistance of Pseudomona aeruginosa to the antibiotic (Pseudomona aeruginosa): S

Compound: trimethoprim-sulfamethoxazole [SXT]
- resistance of Staphylococcus aureus to the antibiotic (Staphylococcus aureus): S
- resistance of Escherichia coli to the antibiotic (Escherichia coli): R
- drug resistant spectrum of the experimental strain of Klebsiella pneumoniae (Klebsiella pneumoniae [1]): R
- resistance of Klebsiella pneumoniae to the antibiotic (Klebsiella pneumoniae [2]): R
